Measurements as given in US7964531B2, “3-phenoxy-4-pyridazinol derivatives and herbicidal composition containing the same” (Mitsui Chemicals Agro, Inc., priority 2001, dated 2011).

How the values were obtained:
Assay type in all cases: in vivo
Settings in all cases: wettable powder applied 3 days after transplanting, judged after 25 days
[1] = system: annual broad-leaved weeds (Lindernia spp., Rotala indica); assay: Test Example 1: herbicidal effects, paddy-field pot test
Description: (§1) A paddy soil was filled in 1/10,000 are pot, and seeds of barnyardgrass (Echinochloa oryzicola Vasing.), Scirpus joncoides and annual broad-leaved weeds (Lindernia spp., Rotala indica) which are awaken from dormancy were mixed at the surface layer of 1 cm. Also, tuber of Cyperus serotinus which is germinated was planted, and further seedlings of paddy-field rice at 2.2-leaf stage were transplanted, and they were grown under the flooded condition in a greenhouse. After 3 days from transplanting, a predetermined chemical dosage of the wettable powder prepared in accordance with Preparation example 1 was diluted in water, and the solution was applied to the pot and herbicidal effects and crop injury against transplanted paddy-field rice were judged after 25 days from the treatment. Also, 3-(2-allylphenoxy)-6-chloro-4-methoxypyridazine described in Chemical Pharmaceutical Bulletin, 1972, vol. 20, No. 10, pp. 2191-2203 was used as Comparative compound. Incidentally, herbicidal effects and crop injury against transplanted paddy-field rice were judged by the following judgment standard, and “-” in the table means no test was carried out.
(§2) Judgment Standard • 0: Growth inhibition rate; 0 to 10% • 1: Growth inhibition rate; 11 to 30% • 2: Growth inhibition rate; 31 to 50% • 3: Growth inhibition rate; 51 to 70% • 4: Growth inhibition rate; 71 to 90% • 5: Growth inhibition rate; 91 to 100%.

[2] = system: Cyperus serotinus; assay: as above
Description: as §1, §2

[3] = system: barnyardgrass (Echinochloa oryzicola Vasing.); assay: as above
Description: as §1, §2

[4] = system: transplanted paddy-field rice; assay: Test Example 1: crop injury against transplanted paddy-field rice
Description: as §1, §2

[5] = system: Scirpus joncoides; assay: Test Example 1: herbicidal effects, paddy-field pot test
Description: as §1, §2

SMILES	Herbicidal effects Broad leaf ([1]; chemical dosage 10 g/a)	Herbicidal effects Cyperus serotinus ([2]; chemical dosage 10 g/a)	Herbicidal effects Barnyard grass ([3]; chemical dosage 10 g/a)	Crop injury against transplanted rice ([4]; chemical dosage 10 g/a)	Herbicidal effects Scirpus joncoides ([5]; chemical dosage 10 g/a)	Herbicidal effects Scirpus joncoides ([5]; chemical dosage 20 g/a)	Herbicidal effects Broad leaf ([1]; chemical dosage 20 g/a)	Herbicidal effects Cyperus serotinus ([2]; chemical dosage 20 g/a)	Herbicidal effects Barnyard grass ([3]; chemical dosage 20 g/a)	Crop injury against transplanted rice ([4]; chemical dosage 20 g/a)	other results
Oc1cc(Cl)nnc1Oc1c(Br)cccc1Br [Example 248]	5 (Growth inhibition rate; 91 to 100%)	5 (Growth inhibition rate; 91 to 100%)	3 (Growth inhibition rate; 51 to 70%)	0 (Growth inhibition rate; 0 to 10%)							Herbicidal effects Broad leaf ([1]; chemical dosage 5 g/a): 5 (Growth inhibition rate; 91 to 100%); Herbicidal effects Cyperus serotinus ([2]; chemical dosage 5 g/a): 5 (Growth inhibition rate; 91 to 100%); Herbicidal effects Barnyard grass ([3]; chemical dosage 5 g/a): 1 (Growth inhibition rate; 11 to 30%); Crop injury against transplanted rice ([4]; chemical dosage 5 g/a): 0 (Growth inhibition rate; 0 to 10%)
CCCS(=O)(=O)Oc1cc(Cl)nnc1Oc1ccccc1C1CC1 [Example 360]	5 (Growth inhibition rate; 91 to 100%)	5 (Growth inhibition rate; 91 to 100%)	3 (Growth inhibition rate; 51 to 70%)	0 (Growth inhibition rate; 0 to 10%)	5 (Growth inhibition rate; 91 to 100%)	5 (Growth inhibition rate; 91 to 100%)	5 (Growth inhibition rate; 91 to 100%)	5 (Growth inhibition rate; 91 to 100%)	4 (Growth inhibition rate; 71 to 90%)	0 (Growth inhibition rate; 0 to 10%)	
Oc1cc(Cl)nnc1Oc1cccc2sccc12 [Example 185]											Herbicidal effects Scirpus joncoides ([5]; chemical dosage 5 g/a): 2 (Growth inhibition rate; 31 to 50%); Herbicidal effects Broad leaf ([1]; chemical dosage 5 g/a): 3 (Growth inhibition rate; 51 to 70%); Herbicidal effects Cyperus serotinus ([2]; chemical dosage 5 g/a): 3 (Growth inhibition rate; 51 to 70%); Herbicidal effects Barnyard grass ([3]; chemical dosage 5 g/a): 1 (Growth inhibition rate; 11 to 30%); Crop injury against transplanted rice ([4]; chemical dosage 5 g/a): 0 (Growth inhibition rate; 0 to 10%)
Cc1ccc(Cl)c(Oc2nnc(Cl)cc2O)c1 [Example 203]											Herbicidal effects Scirpus joncoides ([5]; chemical dosage 12.5 g/a): 5 (Growth inhibition rate; 91 to 100%); Herbicidal effects Scirpus joncoides ([5]; chemical dosage 25 g/a): 5 (Growth inhibition rate; 91 to 100%); Herbicidal effects Broad leaf ([1]; chemical dosage 12.5 g/a): 5 (Growth inhibition rate; 91 to 100%); Herbicidal effects Broad leaf ([1]; chemical dosage 25 g/a): 5 (Growth inhibition rate; 91 to 100%); Herbicidal effects Cyperus serotinus ([2]; chemical dosage 12.5 g/a): 5 (Growth inhibition rate; 91 to 100%); Herbicidal effects Cyperus serotinus ([2]; chemical dosage 25 g/a): 5 (Growth inhibition rate; 91 to 100%); Herbicidal effects Barnyard grass ([3]; chemical dosage 12.5 g/a): 1 (Growth inhibition rate; 11 to 30%); Herbicidal effects Barnyard grass ([3]; chemical dosage 25 g/a): 2 (Growth inhibition rate; 31 to 50%); Crop injury against transplanted rice ([4]; chemical dosage 12.5 g/a): 0 (Growth inhibition rate; 0 to 10%); Crop injury against transplanted rice ([4]; chemical dosage 25 g/a): 0 (Growth inhibition rate; 0 to 10%)
CCc1cccc(Br)c1Oc1nnc(Cl)cc1O [Example 250]	5 (Growth inhibition rate; 91 to 100%)	5 (Growth inhibition rate; 91 to 100%)	3 (Growth inhibition rate; 51 to 70%)	0 (Growth inhibition rate; 0 to 10%)	5 (Growth inhibition rate; 91 to 100%)	5 (Growth inhibition rate; 91 to 100%)	5 (Growth inhibition rate; 91 to 100%)	5 (Growth inhibition rate; 91 to 100%)	4 (Growth inhibition rate; 71 to 90%)	0 (Growth inhibition rate; 0 to 10%)	
CCc1cccc(Cl)c1Oc1nnc(Cl)cc1O [Example 243]											Herbicidal effects Scirpus joncoides ([5]; chemical dosage 12.5 g/a): 4 (Growth inhibition rate; 71 to 90%); Herbicidal effects Scirpus joncoides ([5]; chemical dosage 25 g/a): 4 (Growth inhibition rate; 71 to 90%); Herbicidal effects Broad leaf ([1]; chemical dosage 12.5 g/a): 5 (Growth inhibition rate; 91 to 100%); Herbicidal effects Broad leaf ([1]; chemical dosage 25 g/a): 5 (Growth inhibition rate; 91 to 100%); Herbicidal effects Cyperus serotinus ([2]; chemical dosage 12.5 g/a): 5 (Growth inhibition rate; 91 to 100%); Herbicidal effects Cyperus serotinus ([2]; chemical dosage 25 g/a): 5 (Growth inhibition rate; 91 to 100%); Herbicidal effects Barnyard grass ([3]; chemical dosage 12.5 g/a): 1 (Growth inhibition rate; 11 to 30%); Herbicidal effects Barnyard grass ([3]; chemical dosage 25 g/a): 2 (Growth inhibition rate; 31 to 50%); Crop injury against transplanted rice ([4]; chemical dosage 12.5 g/a): 0 (Growth inhibition rate; 0 to 10%); Crop injury against transplanted rice ([4]; chemical dosage 25 g/a): 0 (Growth inhibition rate; 0 to 10%)
Cc1ccc2c(c1Oc1nnc(Cl)cc1O)OCC2 [Example 308]	5 (Growth inhibition rate; 91 to 100%)	5 (Growth inhibition rate; 91 to 100%)	2 (Growth inhibition rate; 31 to 50%)	0 (Growth inhibition rate; 0 to 10%)	4 (Growth inhibition rate; 71 to 90%)	5 (Growth inhibition rate; 91 to 100%)	5 (Growth inhibition rate; 91 to 100%)	5 (Growth inhibition rate; 91 to 100%)	4 (Growth inhibition rate; 71 to 90%)	0 (Growth inhibition rate; 0 to 10%)	
Cc1ccc(Oc2nnc(Cl)cc2O)c(C2CC2)c1 [Example 202]	5 (Growth inhibition rate; 91 to 100%)	4 (Growth inhibition rate; 71 to 90%)	2 (Growth inhibition rate; 31 to 50%)	0 (Growth inhibition rate; 0 to 10%)							
Oc1cc(Cl)nnc1Oc1cccc2c1CCO2 [Example 181]	5 (Growth inhibition rate; 91 to 100%)	4 (Growth inhibition rate; 71 to 90%)	1 (Growth inhibition rate; 11 to 30%)	0 (Growth inhibition rate; 0 to 10%)	3 (Growth inhibition rate; 51 to 70%)	4 (Growth inhibition rate; 71 to 90%)	5 (Growth inhibition rate; 91 to 100%)	5 (Growth inhibition rate; 91 to 100%)	2 (Growth inhibition rate; 31 to 50%)	0 (Growth inhibition rate; 0 to 10%)	
Cc1cc(C)c(Oc2nnc(Cl)cc2O)c(Br)c1 [Example 315]							5 (Growth inhibition rate; 91 to 100%)	5 (Growth inhibition rate; 91 to 100%)	4 (Growth inhibition rate; 71 to 90%)	0 (Growth inhibition rate; 0 to 10%)	
CCc1ccc(C2CC2)c(Oc2nnc(Cl)cc2O)c1 [Example 219]	5 (Growth inhibition rate; 91 to 100%)		3 (Growth inhibition rate; 51 to 70%)	0 (Growth inhibition rate; 0 to 10%)	5 (Growth inhibition rate; 91 to 100%)	5 (Growth inhibition rate; 91 to 100%)	5 (Growth inhibition rate; 91 to 100%)		4 (Growth inhibition rate; 71 to 90%)	0 (Growth inhibition rate; 0 to 10%)	
Oc1cc(Cl)nnc1Oc1cccc2c1CC1CC21 (stereo not drawn) [Example 15]	5 (Growth inhibition rate; 91 to 100%)	5 (Growth inhibition rate; 91 to 100%)	1 (Growth inhibition rate; 11 to 30%)	0 (Growth inhibition rate; 0 to 10%)							
CC(C)c1cccc(C(C)C)c1Oc1nnc(Cl)cc1O [Example 271]											Herbicidal effects Scirpus joncoides ([5]; chemical dosage 12.5 g/a): 2 (Growth inhibition rate; 31 to 50%); Herbicidal effects Scirpus joncoides ([5]; chemical dosage 25 g/a): 4 (Growth inhibition rate; 71 to 90%); Herbicidal effects Broad leaf ([1]; chemical dosage 12.5 g/a): 5 (Growth inhibition rate; 91 to 100%); Herbicidal effects Broad leaf ([1]; chemical dosage 25 g/a): 5 (Growth inhibition rate; 91 to 100%); Herbicidal effects Cyperus serotinus ([2]; chemical dosage 12.5 g/a): 3 (Growth inhibition rate; 51 to 70%); Herbicidal effects Cyperus serotinus ([2]; chemical dosage 25 g/a): 4 (Growth inhibition rate; 71 to 90%); Herbicidal effects Barnyard grass ([3]; chemical dosage 12.5 g/a): 1 (Growth inhibition rate; 11 to 30%); Herbicidal effects Barnyard grass ([3]; chemical dosage 25 g/a): 2 (Growth inhibition rate; 31 to 50%)
CCc1cc(I)cc(I)c1Oc1nnc(Cl)cc1O [Example 316]	5 (Growth inhibition rate; 91 to 100%)		2 (Growth inhibition rate; 31 to 50%)	0 (Growth inhibition rate; 0 to 10%)			5 (Growth inhibition rate; 91 to 100%)		3 (Growth inhibition rate; 51 to 70%)	0 (Growth inhibition rate; 0 to 10%)	
CN(C)C(=O)Oc1cc(Cl)nnc1Oc1ccccc1C1CC1 [Example 352]						5 (Growth inhibition rate; 91 to 100%)	5 (Growth inhibition rate; 91 to 100%)		4 (Growth inhibition rate; 71 to 90%)	0 (Growth inhibition rate; 0 to 10%)	
Oc1cc(Cl)nnc1Oc1c(F)cc(C2CC2)cc1C1CC1 [Example 313]							5 (Growth inhibition rate; 91 to 100%)		1 (Growth inhibition rate; 11 to 30%)	0 (Growth inhibition rate; 0 to 10%)	
